pIC50: −log10 of the molar value.
System: biosynthesis of cholesterol
Assay: CSI screen (cholesterol synthesis inhibition) as disclosed in U.S. Pat. No. 4,681,893
Format: biochemical
Description: The compounds according to present invention and especially according to the compound of the formula I inhibit the biosynthesis of cholesterol as found in the CSI screen that is disclosed in U.S. Pat. No. 4,681,893 which is now also incorporated by reference therefor. The CSI data of the compound I, its enantiomer the compound II and the racemate of these two compounds are as follows: […]

Structure (SMILES) | pIC50
CC(C)c1c(C(=O)Nc2ccccc2)c(-c2ccccc2)c(-c2ccc(F)cc2)n1CCC(O)CC(O)CC(=O)O (single isomer, unassigned) [[S—(R*R*)] isomer] | 6.36
CC(C)c1c(C(=O)Nc2ccccc2)c(-c2ccccc2)c(-c2ccc(F)cc2)n1CC[C@@H](O)C[C@@H](O)CC(=O)O (single isomer, unassigned) [[R—(R*R*)] isomer, [R-(R*,R*)]-2-(4-fluorophenyl)-β,δ-dihydroxy-5-(1-methylethyl)-3-phenyl-4-[(phenylamino)carbonyl]-1H-pyrrole-1-heptanoic acid] | 8.36

— patent USRE40667E1, “[R-(R*R*)]-2-(4-fluorophenyl)-β,δ-dihydroxy-5-(1-methylethyl-3-phenyl-4-[(phenylamino)carbonyl]-1H-pyrrole-1-heptanoic acid, its lactone form and salts thereof” (Warner-Lambert Company LLC, priority 1989, dated 2009)
